Laboratory results taken from patent US20230226138A1, “COMPOSITIONS AND METHODS FOR TREATING INFECTIONS AND NETOPATHY” (Black Cat Bio Limited, priority 2020, published 2023).
Where two headings read alike, the source gives them in different places.

What was measured:
TMPRSS2 [1] = assay type: cell-based, human; details: for TMPRSS2 protein expression: relative to non-DHT stimulated control
Experimental: (§1) LNCaP and A549 cells were seeded at a density of 1×10^6 in 6-well plates and incubated for 72 hours in phenol red free RPM1-1640 and DMEM media (Lonza), supplemented with 5% and 2% double charcoal stripped FCS (First Link UK) respectively, and 2 mM I-glutamine, 100 units/ml penicillin and […] streptomycin (Sigma). Cells were treated with 100 ng/ml Epithelial Growth Factor (EGF, Sigma) or 1 nM DHT (dihydrotestosterone, Sigma) ±SA Inhibitor for 72 hrs. Cells were harvested and proteins separated using SDS-PAGE. Blots were probed with antibodies specific for TMPRSS2 (ab92323, Abcam) and α-tubulin (B-5-1-2, Sigma). Protein levels were visualized using a chemiluminescence imaging system (Fusion FX, Vilber). Densitometry was performed using Image J and TMPRSS2 levels normalised to the internal control (Tubulin).

TMPRSS2 [2] = assay type: cell-based, human; details: for TMPRSS2 protein expression: relative to non-DHT stimulated control; remark: listed apart in the source
Experimental: as §1

Neutrophils (NETosis) [3] = assay type: cell-based, human
Experimental: Neutrophils, isolated as described in Example 4 (or by equivalent methodology as known in the art, for example, Ficoll Density gradient and dextran sedimentation followed by Red blood cell lysis with hypertonic solution) are resuspended in phenol red free RPMI 1640 media at a density of 2×10^6 cells per milliliter and incubated for five minutes in the dark at room temperature with NUCLEAR-ID Red (membrane impermeable) DNA dye to stain nuclei (1 ml/1.5 ml of cell suspension; Enzo Life Sciences). Cells are washed three times to remove free Dye by centrifuging at 2400 RFI for 5 min to pellet the cells and replacing supernatant with 1 ml fresh phenol red free RPMI 1640 media. […]
Neutrophils are imaged within 10 min of plating using phase contrast, red (800-ms exposure), and green (400-ms exposure) channels in an IncuCyte ZOOM platform, housed inside an incubator at 37° C. with 5% CO2. […] The Number of neutrophils is then calculated as the average red count for the three images per well and the Number of green cells calculated as the average green count. The percentage of neutrophils undergoing NETosis is calculated as the average green count divide by the average red count at each time point measured.

ACE2 = details: 6 hrs
Experimental: (§2) LNCaP (prostate) and A549 (Androgen receptor positive, human alveolar carcinoma-derived cell line with type II pneumonocyte properties) cells were seeded in 12-well plates (2×10^5 cells per well) in phenol red free RPMI-1640 and DMEM media (Lonza), supplemented with 5% and 2% double charcoal stripped FCS (First Link UK) respectively, and 2 mM I-glutamine, 100 units/ml penicillin and […] streptomycin (Sigma). Charcoal stripping was required to remove residual traces of hormones (Sedelaar et al, (2009)). Cells were treated with 0-100 nM dihydrotestosterone (DHT, Sigma) for 6 hrs. RNA was extracted using TRIzol (Thermo Fisher Scientific) and reverse transcribed (LunaScript RT Supermix Kit, NEB). TMPRSS2 and ACE2 expression was quantified using qPCR (LightCycler 96, Roche) and the data normalized to an internal control (L19).

TMPRSS2 [4] = details: 6 hrs; for relative expression of TMPRSS2: LNCaP
Experimental: as §2

[5] = animal disease models; cited from earlier work
Src kinase = Src kinase (Homo sapiens, UniProt P12931); details: cited from earlier work
P38MAP kinase = details: cited from earlier work
Neutrophils (NETosis) [6] = test: Live cell imaging of IL8 triggered NETosis (Example 7); assay type: cell-based, human
Experimental: In a similar experiment to that described in Example 5, IL8 (Merck, Product Number 11645-10UG) is used to activate NETosis in response to LPS using a similar checkerboard configuration as shown in Table 4 (working IL6 concentrations 0, 1, 10 and 100 nM).

[7] = test system: COVID-19 patient derived neutrophils (NETosis); test: Live cell imaging of NETosis in COVID-19 patient derived neutrophils (Example 8); assay type: cell-based, human; details: neutrophils from a SARSCoV-2 patient in intensive care
SARS-COV-2 infection = test: Patient case, standalone SA inhibitor to reduce viral load (Example 12); assay type: in vivo, human; details: 4 mg/kg once daily sub-cutaneous, after a few days
Text: A patient is brought into the hospital suffering from respiratory flu like symptoms. A blood sample is taken from the patient, who is confirmed by PCR analysis of viral RNA to have a SARS-COV-2 infection. […] Administration of the peptide continues until the patient is confirmed to be virus free by PCR.

[8] = Patient case, sterile inflammatory response following trauma (Example 11); assay type: in vivo, human; details: 4 mg/kg sub-cutaneous once daily, post traumatic sepsis, after a few days
Text: The patient is admitted to an intensive care unit and placed in an induced coma. […] The patients' cultures fail to reveal a bacterial infection. After a few days of once daily administration of the peptide, markers of Systematic Inflammatory Response Syndrome (SIRS), including temperature, heart rate and breathing rate improve. The peptide is continued to be administered until SIRS markers have returned to normal.

COVID-19 virus infection = test: Patient case, standalone SA inhibitor, viral load and NETosis (Example 13); assay type: in vivo, human; details: 4 mg/kg once daily sub-cutaneous
TMPRSS2 [9] = test: TMPRSS2 protein levels in A549 in full media (SDS-PAGE blot, densitometry); assay type: cell-based, human; details: A549, full media (10% FCS), 72 hrs
Experimental: A549 were seeded in 6-well plates at a density of 1×10^6 per well. Cells were incubated in DMEM media (Lonza), supplemented with 10% FCS (HyClone) and 2 mM !-glutamine, 100 units/ml penicillin and 100 mg/ml streptomycin (Sigma). […] Cells were treated with 0-1 μM SA Inhibitor (SEQ ID NO: 2) or 10 μM Enzalutamide (ENZA, Sigma) for 72 hrs. Cells were harvested and proteins separated using SDS-PAGE. Blots were probed with antibodies specific for TMPRSS2 (ab92323, Abcam) and α-tubulin (B-5-1-2, Sigma). Protein levels were visualized using a chemiluminescence imaging system (Fusion FX, Vilber). Densitometry was performed using Image J and TMPRSS2 levels normalized to the internal control (Tubulin).

[10] = test system: NETosis in Neutrophils (H3.1 nucleosomes); test: NETosis quantified by release of H3.1 nucleosomes from stimulated neutrophils; details: 4 hours
Experimental: The ability of SA Inhibitor to reduce NETosis in Neutrophils stimulated by lipopolysaccharide (LPS, Sigma Aldrich, Product Number L4391-1MG) alone or in combination with Epidermal growth factor (Sigma Aldrich, Product Number SRP3027-500UG) was compared to the efficacy of a Src kinase Inhibitor (PP2, Sigma Aldrich, Product Number P0042-5MG) and a PAD4 inhibitor (GSK484, Cambridge Bioscience UK, Product Number CAY17488-1 mg) which is known to down regulate NETosis by preventing citrullination of histone proteins. […]
Tube-2 was placed into the magnet and after 10 minutes incubation the clear fraction (enriched cell suspension) collected by single pipette and transferred into a fresh 50 ml conical falcon tube (Tube-3) which was placed back into the magnet for a final, third separation. The clear fraction, containing purified, isolated neutrophils was transferred into a fresh 50 ml conical falcon tube (Tube-4) and the neutrophil cell Number, % viability and yield determined by cell counting and Trypan blue exclusion. […]

[11] = Patient case, flare up of Chron's disease, dry powder inhaler (second Example 14); assay type: in vivo, human; details: one metered dose (1 mg/kg) each morning, after eight days
Experimental: […] […] The patient is advised to take one metered dose (1 mg/kg) each morning until symptoms abate.

[12] = test system: NETosis in Neutrophils (H3R8 citrullinated nucleosomes); test: NETosis quantified by release of H3R8 citrullinated nucleosomes from stimulated neutrophils; assay type: cell-based, human; details: for citrullinated nucleosomes: 4 hours
[13] = test system: Staphylococcus aureus infection; test: Patient case, bacterial infection with septic shock (Example 10); assay type: in vivo, human; details: 4 mg/kg sub-cutaneous once daily, antibiotics also administered, after a few days
Experimental: A patient is seen in the Emergency Room. The patient is running a temperature of 102° F. with a heart rate exceeding 90 beats/minute and rapid breathing. Septic shock is confirmed based on the requirement for vasopresser administration to maintain a mean arterial pressure of 65 mmHg and serum lactate level over 2 mmol/L. The patient is noted to be suffering from impaired kidney function. […] A Staphylococcus aureus infection is confirmed, and antibiotics administered. […] The peptide is continued to be administered once daily to the patient until the patient is recovered.

Neutrophils (NETosis) [14] = test: Live cell imaging of IL6 triggered NETosis (Example 6); assay type: cell-based, human
Experimental: In a similar experiment to that described in Example 5, IL6 (Merck, Product Number H7416-10UG) is used to activate NETosis in response to LPS using a similar checkerboard configuration as shown in Table 4 (working IL6 concentrations 0, 10, 50 and 100 ng/mL).

Sequence of Src kinase (P12931 whole entry): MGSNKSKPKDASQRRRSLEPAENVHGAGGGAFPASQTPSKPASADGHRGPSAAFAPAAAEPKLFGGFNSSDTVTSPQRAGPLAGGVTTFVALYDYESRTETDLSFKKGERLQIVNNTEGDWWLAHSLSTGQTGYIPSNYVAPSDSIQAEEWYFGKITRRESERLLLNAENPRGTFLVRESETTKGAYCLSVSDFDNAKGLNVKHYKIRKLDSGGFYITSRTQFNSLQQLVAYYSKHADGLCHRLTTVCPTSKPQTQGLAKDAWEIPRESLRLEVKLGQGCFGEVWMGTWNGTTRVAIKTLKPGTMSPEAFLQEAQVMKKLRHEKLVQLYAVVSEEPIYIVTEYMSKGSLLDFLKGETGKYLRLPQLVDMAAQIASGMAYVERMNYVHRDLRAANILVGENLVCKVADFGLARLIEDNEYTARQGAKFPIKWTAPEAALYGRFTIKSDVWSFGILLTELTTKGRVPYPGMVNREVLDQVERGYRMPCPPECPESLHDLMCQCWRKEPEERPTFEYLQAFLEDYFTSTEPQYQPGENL

EGF: Epithelial Growth Factor (EGF, Sigma) (NSDSECPLSHDGYCLHDGVCMYIEALDKYACNCVVGYIGERCQYRDLKWWELR; UniProt P01133 971-1023, looked up) [reference compound]
TMPRSS2 relative expression (TMPRSS2 [1]; LNCaP, 100 ng/ml EGF, 72 hrs): 62.8%
TMPRSS2 relative expression (TMPRSS2 [2]; A549, 100 ng/ml EGF, 72 hrs): 797%

C[C@]12CCC(=O)C[C@@H]1CC[C@@H]1[C@@H]2CC[C@]2(C)[C@@H](O)CC[C@@H]12 [dihydrotestosterone]
level of NETosis (percentage of neutrophils undergoing NETosis) (Neutrophils (NETosis) [3]): increased with increasing concentrations of dihydrotestosterone
TMPRSS2 relative expression (TMPRSS2 [1]): 168%
TMPRSS2 relative expression (TMPRSS2 [2]): 120.9%
relative expression of ACE2 (ACE2; A549, 0-100 nM dihydrotestosterone): slight negative correlation with dihydrotestosterone concentration
expression of ACE2, dose response to stimulation (ACE2; LNCaP, 0-100 nM dihydrotestosterone): TMPRSS2, but not ACE2, showed a dose response
TMPRSS2 expression increase (TMPRSS2 [4]; A549, 1 nM dihydrotestosterone, compared to cells grown in the absence of dihydrotestosterone): over 2 ×
relative expression of TMPRSS2 (TMPRSS2 [4]; 0.1 nM dihydrotestosterone, compared to cells grown in the absence of dihydrotestosterone): approximately 3 ×
relative expression of TMPRSS2 (TMPRSS2 [4]; 10 nM dihydrotestosterone, compared to the control): 6 ×

O=C(O)c1cccnc1 [Niacin]
chemically induced lung fibrosis [5]: reduced
Src kinase activity (Src kinase): inhibited
P38MAP kinase activity (P38MAP kinase): inhibited

IL8: IL8 (Merck) used to activate NETosis in response to LPS [reference compound]
level of NETosis (Neutrophils (NETosis) [6]; LPS trigger, IL8 0, 1, 10 and 100 nM): increased with increasing concentrations of IL8

Ac-Pro-Pro-Pro-His-Pro-His-Ala-Arg-Ile-Lys-NH2 (Ac-PPPHPHARIK-NH2) [SA Inhibitor]
level of NETosis [7]: shown to decrease in the treated neutrophils
viral load as determined by PCR (SARS-COV-2 infection): lower than what would have been expected in the absence of the administration of the peptide
effect on DHT increased NETosis (Neutrophils (NETosis) [3]; 20 ug/mL LPS trigger plus DHT, SA Inhibitor 1 nM-1 mM, 30 minutes preincubation): This increase is reversed
markers of SIRS (temperature, heart rate, breathing rate) [8]: improve
lung function / SpO2 (COVID-19 virus infection): improved lung function with a higher measured SpO2 level
viral load, as measured by PCR (COVID-19 virus infection; after a few days): reduced and lower than would be expected in the absence of the peptide
expression of TMPRSS2 protein (TMPRSS2 [9]; 0-1 μM SA Inhibitor): decreased expression up to 10 nM SA Inhibitor followed by a progressive increase up to 1 μM
effect on EGF suppression of TMPRSS2 expression (TMPRSS2 [1]; EGF alone and with DHT, cell line not specified (LNCaP and A549 tested)): reversed this inhibitory effect
TMPRSS2 protein expression (TMPRSS2 [1]; LNCaP, SA Inhibitor in the absence of DHT stimulation, 72 hrs): 58.7%
TMPRSS2 protein expression (TMPRSS2 [1]; LNCaP, SA Inhibitor with DHT stimulation (1 nM), 72 hrs): 60.4%
effect on IL8 increased NETosis (Neutrophils (NETosis) [6]; LPS trigger plus IL8, SA Inhibitor checkerboard as Table 4): This increase is reversed
H3.1 NETosis derived nucleosome levels ([10]; LPS in combination with EGF, without inhibitor 641.9 ng/mL, inhibitor concentration not stated): 254.2 ng/mL
H3.1 nucleosomes released ([10]; LPS trigger, 0.1 uM SA Inhibitor, LPS alone 523.2 ng/mL): 339.4 ng/mL
TMPRSS2 protein expression (TMPRSS2 [2]; A549, SA Inhibitor in the absence of DHT stimulation, 72 hrs): 77.6%
TMPRSS2 protein expression (TMPRSS2 [2]; A549, SA Inhibitor with DHT stimulation (1 nM), 72 hrs): 70.2%
Chron's disease flare up outcome [11]: goes back into remission
citrullinated nucleosomes ([12]; LPS trigger, 0.1 uM SA Inhibitor, LPS alone 158 ng/mL): 126.5 ng/mL
citrullinated nucleosomes ([12]; LPS trigger, 10 uM SA Inhibitor, LPS alone 158 ng/mL): 66.6 ng/mL
citrullinated nucleosomes ([12]; combined LPS and EGF, 0.1 uM SA Inhibitor, without inhibitor 208.5 ng/mL): 111.1 ng/mL
kidney function [13]: returns to normal
markers of SIRS (temperature, heart rate, breathing rate) [13]: improve
effect on IL6 increased NETosis (Neutrophils (NETosis) [14]; LPS trigger plus IL6, SA Inhibitor checkerboard as Table 4): This increase is reversed

COc1cc(C(=O)N2CC[C@@H](O)[C@@H](N)C2)cc2nc(-c3cc4ccccc4n3CC3CC3)n(C)c12 [PAD4i, reference compound]
suppression of NETosis by citrullinated nucleosome marker ([12]; LPS or LPS and EGF (FIG. 4C, 4D), inhibitor 0.1-10 uM): dose response reduction in citrullinated nucleosomes levels

CNC(=O)c1ccc(N2C(=S)N(c3ccc(C#N)c(C(F)(F)F)c3)C(=O)C2(C)C)cc1F [enzalutamide, Enzalutamide, reference compound]
expression of TMPRSS2 protein (TMPRSS2 [9]; 10 μM Enzalutamide): did not achieve down regulation

IL6: IL6 (Merck) used to activate NETosis in response to LPS [reference compound]
level of NETosis (Neutrophils (NETosis) [14]; LPS trigger, IL6 0, 10, 50 and 100 ng/mL): increased with increasing concentrations of IL6
